What was measured:
[1] = Inhibition of gamma-secretase-mediated APP cleavage assessed as amyloid beta40 level after 2 hrs by ELISA
[2] = Inhibition of gamma-secretase-mediated notch cleavage after 2 hrs by ELISA
[3] = target: Gamma-secretase (Homo sapiens) (UniProt Q96BI3+Q9NZ42+Q8WW43+P49768+Q92542+P49810); experiment: Inhibition of gamma-secretase-mediated APP cleavage in human SNC cells by ELISA; type: cell-based
Gamma-secretase = experiment: Inhibition of gamma-secretase-mediated notch cleavage in human SNC cells by ELISA; type: cell-based
[4] = Oxidative metabolic stability in human liver microsomes assessed as compound remaining at 2 uM after 30 mins in presence of 1 mM UDPGA; type: ADME, Microsome; details: liver microsomes, read-out: Stability
[5] = Oxidative metabolic stability in human liver microsomes assessed as compound remaining at 1 uM after 30 mins in presence of 1 mM NADPH; type: ADME, Microsome; details: liver microsomes, read-out: Stability

Structure (SMILES) | IC50 [1] [nM] | IC50 [2] [nM] | ED50 [3] [nM] | IC50 (Gamma-secretase) [nM] | remaining at 0.5 h, 2 µM [4] [%] | remaining at 0.5 h, 1 µM [5] [%]
CC1C(=O)c2[nH]ncc2C(C2CC2)N1S(=O)(=O)c1ccc(C(F)(F)F)cc1 (configuration not stated) | 0.5 | 12 | 2340 | > 40000 | 67 | 62
O=C1CN(S(=O)(=O)c2ccc(C(F)(F)F)cc2)C(C(F)(F)F)c2cn[nH]c21 (configuration not stated) | 2.6 | 51 | > 10000 | > 40000 | 6 | 1
CC1C(=O)c2[nH]ncc2C(C)N1S(=O)(=O)c1ccc(C(F)(F)F)cc1 (configuration not stated) | 6.8 | 89 | 5110 | > 40000 | 77 | 63
CCC1c2cn[nH]c2C(=O)CN1S(=O)(=O)c1ccc(C(F)(F)F)cc1 (configuration not stated) | 6.5 | – | > 10000 | > 40000 | – | 19
O=C1CN(S(=O)(=O)c2ccc(C(F)(F)F)cc2)[C@H](C2CC2)c2cn[nH]c21 | 9.1 | 354 | > 10000 | > 40000 | – | –
O=S(=O)(c1ccc(C(F)(F)F)cc1)N1C(C2CC2)c2cn[nH]c2C(F)(F)C1C1CC1 (configuration not stated) | 1.5 | 42 | 6 | 771 | 64 | 76
CC(C)[C@@H]1c2cn[nH]c2C(=O)CN1S(=O)(=O)c1ccc(Cl)cc1 | 3.7 | 91 | 4000 | > 40000 | 71 | 12
O=C1c2[nH]ncc2C(C2CC2)N(S(=O)(=O)c2ccc(C(F)(F)F)nc2)C1C1CCOCC1 (racemic) | 1 | 19 | 1 | 187 | 64 | 57
CC(C)C1c2cn[nH]c2C(F)(F)CN1S(=O)(=O)c1ccc(Cl)cc1 (racemic) | 0.7 | 12 | 11 | 574 | 42 | 2
O=C1c2[nH]ncc2C(C2CC2)N(S(=O)(=O)c2ccc(C(F)(F)F)cc2)C12CCCC2 (racemic) | 0.4 | 8 | 2 | 235 | – | 3
O=C1CN(S(=O)(=O)c2ccc(C(F)(F)F)nc2)C(C2CC2)c2cn[nH]c21 (racemic) | 5.6 | 193 | 6000 | > 40000 | 42 | 5
O=C1c2[nH]ncc2C(C2CC2)N(S(=O)(=O)c2ccc(C(F)(F)F)cc2)C1C1CC1 (racemic) | 0.4 | 21 | 21 | 2790 | 76 | 67
O=C1c2[nH]ncc2C(C2CC2)N(S(=O)(=O)c2ccc(C(F)(F)F)nc2)C1c1cc(F)cc(F)c1 (racemic) | 0.7 | 17 | > 1000 | 4000 | – | 9
O=S(=O)(c1ccc(C(F)(F)F)cc1)N1CC(F)(F)c2[nH]ncc2C1C(F)(F)F (racemic) | 0.9 | 10 | 4 | 403 | 35 | 84
CC1(C)C(=O)c2[nH]ncc2C(C2CC2)N1S(=O)(=O)c1ccc(C(F)(F)F)cc1 (racemic) | 7.3 | 268 | 60 | 2660 | 67 | 68
O=C1c2[nH]ncc2C(C2CC2)N(S(=O)(=O)c2ccc(C(F)(F)F)cc2)C12CC2 (racemic) | 1.9 | 69 | 11 | 995 | 84 | 85
O=C1c2[nH]ncc2C(C2CC2)N(S(=O)(=O)c2ccc(Cl)s2)C12CC2 (racemic) | 2 | 18 | 7 | 576 | – | 1
O=C1c2[nH]ncc2C(C2CC2)N(S(=O)(=O)c2ccc(C(F)(F)F)cn2)C12CC2 (racemic) | – | – | 87 | – | – | –
O=C1c2[nH]ncc2C(C2CC2)N(S(=O)(=O)c2ccc(C(F)(F)F)nc2)C12CC2 (racemic) | – | – | 7 | – | – | –
O=S(=O)(c1ccc(C(F)(F)F)nc1)N1C(C2CC2)c2cn[nH]c2C(F)(F)C12CC2 (racemic) | – | – | 0.5 | – | – | –

Structure (SMILES) | IC50 [1] [nM] | IC50 [2] [nM] | ED50 [3] [nM] | IC50 (Gamma-secretase) [nM] | remaining at 0.5 h, 2 µM [4] [%] | remaining at 0.5 h, 1 µM [5] [%]
O=C1c2[nH]ncc2C(C2CC2)N(S(=O)(=O)c2ccc(C(F)(F)F)nc2)C12CC2 (racemic) [4'-CYCLO PROPYL-5'-(6-(TRIFLUORO METHYL)PYRIDIN-3-YL SULFONYL)-4',5'-DIHYDROSPIRO[CYCLOPROPANE-1,6'-PYRAZOLO[4,3-C]PYRIDIN]-7'(1'H)-ONE (ENANTIOMERIC MIX)] | 1.8 | 35 | – | 688 | 91 | 86
O=C1c2[nH]ncc2C(C2CC2)N(S(=O)(=O)c2ccc(C(F)(F)F)cn2)C12CC2 (racemic) [4'-CYCLOPROPYL-5'-(5-(TRIFLUORO METHYL)PYRIDIN-2-YL SULFONYL)-4',5'-DIHYDROSPIRO[CYCLOPROPANE-1,6'-PYRAZOLO[4,3-C]PYRIDIN]-7'(1'H)-ONE (ENANTIOMERIC MIX)] | 24 | 502 | – | 6210 | 89 | 76
O=C1c2[nH]ncc2[C@@H](C2CC2)N(S(=O)(=O)c2ccc(C(F)(F)F)nc2)[C@H]1C1CC1 (relative stereo) | 0.3 | 10 | 130 | 6700 | 75 | 77
CC(C)[C@H]1C(=O)c2[nH]ncc2[C@@H](C(C)C)N1S(=O)(=O)c1ccc(C(F)(F)F)cc1 (relative stereo) | 0.5 | 14 | 33 | 2300 | 82 | 0
COC[C@H]1C(=O)c2[nH]ncc2[C@@H](C2CC2)N1S(=O)(=O)c1ccc(C(F)(F)F)cc1 (relative stereo) | 3.2 | 126 | > 10000 | > 40000 | – | 14
C[C@H]1C(=O)c2[nH]ncc2[C@@H](C2CC2)N1S(=O)(=O)c1ccc(C(F)(F)F)nc1 (relative stereo) | 0.6 | 21 | > 10000 | > 40000 | 59 | 72
CC[C@@H]1c2cn[nH]c2C(=O)[C@H](CC)N1S(=O)(=O)c1ccc(C(F)(F)F)nc1 (relative stereo) | 0.8 | 36 | 21 | 2360 | 83 | 57
O=C1c2[nH]ncc2[C@@H](C2CC2)N(S(=O)(=O)c2ccc(C(F)(F)F)nc2)[C@@H]1C1CC1 (relative stereo) | 3 | 66 | 374 | 25100 | 87 | 21
C[C@@H]1N(S(=O)(=O)c2ccc(C(F)(F)F)cc2)[C@H](C2CC2)c2cn[nH]c2C1(F)F (relative stereo) | 1 | 18 | 7 | 418 | 46 | 75
C[C@@H]1C(=O)c2[nH]ncc2[C@H](C)N1S(=O)(=O)c1ccc(C(F)(F)F)nc1 (stereo in doubt) | 91 | 2270 | > 10000 | > 40000 | – | 62
CC[C@@H]1C(=O)c2[nH]ncc2[C@H](CC)N1S(=O)(=O)c1ccc(Cl)cc1 (stereo in doubt) | 0.3 | – | 6 | 546 | 77 | 6
CC(C)(C)C1C(=O)c2[nH]ncc2C(C2CC2)N1S(=O)(=O)c1ccc(C(F)(F)F)nc1 (stereo in doubt; 3t) | – | – | 0.6 | – | – | –
CC(C)(C)C1C(=O)c2[nH]ncc2C(C2CC2)N1S(=O)(=O)c1ccc(C(F)(F)F)nc1 (stereo in doubt; 3t) [6-TERT-BUTYL-4-CYCLOPROPYL-5-(6-(TRIFLUOROMETHYL)PYRIDIN-3-YLSULFONYL)-5,6-DIHYDRO-1H-PYRAZOLO[4,3-C]PYRIDIN-7(4H)-ONE (STRUCTURAL MIX)] | 0.2 | 6 | – | 71 | 66 | 8
CC(C)(C)C1C(=O)c2[nH]ncc2C(C2CC2)N1S(=O)(=O)c1ccc(C(F)(F)F)nc1 (stereo in doubt; 3u) | – | – | 16 | – | – | –
O=C1c2[nH]ncc2C(C2CC2)N(S(=O)(=O)c2ccc(C(F)(F)F)nc2)C12CC2 (stereo in doubt; 16e) | – | – | 2680 | – | – | –
O=C1c2[nH]ncc2C(C2CC2)N(S(=O)(=O)c2ccc(C(F)(F)F)nc2)C12CC2 (stereo in doubt; 16f) | – | – | 4 | – | – | –
O=C1c2[nH]ncc2C(C2CC2)N(S(=O)(=O)c2ccc(C(F)(F)F)cn2)C12CC2 (stereo in doubt; 16h) | – | – | 1850 | – | – | –
O=C1c2[nH]ncc2C(C2CC2)N(S(=O)(=O)c2ccc(C(F)(F)F)cn2)C12CC2 (stereo in doubt; 16i) | – | – | 26 | – | – | –
O=S(=O)(c1ccc(C(F)(F)F)nc1)N1C(C2CC2)c2cn[nH]c2C(F)(F)C12CC2 (stereo in doubt; 17b) | – | – | 0.3 | – | – | –
O=S(=O)(c1ccc(C(F)(F)F)nc1)N1C(C2CC2)c2cn[nH]c2C(F)(F)C12CC2 (stereo in doubt; 17c) | – | – | 86 | – | – | –
